{"source": "patent US20080176810A1", "about": "“Use of 3, 4', 5-Trihydroxy-Stilbene-3-Beta-D-glucoside in Prepartion of Medicines For Treating and/or Preventing Ischemic Heart Disease” (SHENZHEN NEPTUNUS PHARMACEUTICAL CO., LTD., priority 2004, published 2008)", "origin": "cited, not measured here", "key": {"[1]": {"system": "isolated carotid and pulmonary arteries", "details": "cited from earlier work"}, "[2]": {"system": "vascular smooth muscle", "details": "0.02 mM~2 mM; cited from earlier work"}}, "note": "Like-named read-outs stand apart in the source and are kept apart here.", "data": [{"substance": "3,4′,5-trihydroxy-stilbene-3-β-D-glucoside [TSG]", "values": [{"measurement": "effect on vasoconstriction of noadrenalin", "setting": "[1]; 1.37 mM", "value": "no noticeable effect"}, {"measurement": "effect on vasoconstriction of noadrenalin", "setting": "[1]; 1.71 mM", "value": "antagonistic effect"}, {"measurement": "effect on isolated carotid and pulmonary arteries", "setting": "[1]; 3.28 mM", "value": "no noticeable effect"}, {"measurement": "effect on isolated carotid and pulmonary arteries", "setting": "[1]; 5.12 mM", "value": "may relax"}, {"measurement": "intracellular calcium concentration in vascular smooth muscle", "setting": "[2]", "value": "increase intracellular calcium concentration in vascular smooth muscle remarkably"}]}]}
